Laboratory results from patent US20020127182A1, “Paramagnetic metal ion-based macrocylic magnetization transfer contrast agents and method of use” (Board of Regents, The University of Texas System, priority 2000, published 2002).

Tests used:
Assay type in all cases: physicochemical
[1] = 500 MHz 1H NMR spectrum of Eu(2)^- complex, exchangeable sites; conditions: aqueous, pH 7.4, 25° C.
From the text: Two sites in the complex (denoted by the symbols *) are chemically exchangeable with bulk water (denoted by the symbol ? ): one is from Eu^3+-bound water at about 57 ppm, and another is from four equivalent amide protons on the pendent arms at about −6 ppm.

[2] = pH dependence of bound water and amide proton lifetimes τM^298 of Eu(2)^- by variable temperature 1H NMR line width fitting
Procedure: In a sixth series of experiments, the pH dependence of the bound water (FIG. 14) and the amide (FIG. 15) protons lifetimes, τM^298, were determined by variable temperature ^1H NMR line width fitting. The chemically exchangeable bound water and amide protons have different dependence on pH. For bound water protons, the slowest exchange, i.e., largest τM^298, takes place at pH 7 (FIG. 14). Moreover, the pH dependence may be divided into two linear ranges: an acidic range where τM^298=68.6*pH−172.5; and a basic range where τM^298=−128.2*pH+1212.6, respectively. For the amide protons, the slowest exchange is at pH 5.5 (FIG. 15).

[3] = MT profiles of Eu(2)^- complex versus pH and saturation power; conditions: saturating bound water at about 57 ppm; 62.5 mM, 2 s, 41 db
Procedure: In a seventh experiment, MT profiles were obtained for 62.5 mM aqueous solutions of the Eu(2)^− lanthanide-macrocylic complex. A saturating RF pulse of 2 s at the resonance frequency of bound water or amide protons, with a power of 41 db, was applied to a 3.5 cm volume coil. […] The same set of data was plotted versus the bound water lifetime, τM^298, or the exchange limiting regime, Δω•τM, as shown in FIG. 17. The largest MT occurs for a Δω•τM ranging from about 12 to about 17, and optimally about 15.

[4] = 1H NMR spectra of Ln(9)^3+ complexes, exchangeable amide protons
From the text: For certain Ln(9)^3+ complexes, for example, with Ln equal to Yb or Tm, the bound water molecules are ^1H NMR invisible probably due to the fast exchange between the bound water and the bulk water. […] Unfortunately, the NMR signal was invisible, probably due to its fast exchange with the bulk water. However, the eight exchangeable amide protons present as two resonance peaks with equivalent intensity, at −14.5 (Ha) and −17.7 (Hb) ppm, respectively, are visible.

[5] = pH dependence of amide proton (Ha, Hb) lifetimes τM^298 and Δω•τM of Yb(9)^3+
From the text: As indicated by their linewidths, illustrated in FIG. 24, the two exchangeable amide sites have different dependences upon pH. As further illustrated in FIG. 25, Hb exchanges about 1.3 times faster than that of Ha. […] Similar to that discussed above for Ln(1)^3+, either too fast or too slow exchange may produce less MT. For the conditions used to obtain the data presented in Table 2, the maximum MT effect appear to be obtained for Ln(9)^3+ complexes when the exchange limiting regime is about 15.

[6] = Effect of saturation duration on MT with Yb(9)^3+ (bulk water 1H NMR); conditions: 5 mM, pH 7.4, 25° C.; saturating pulse of about 2 s or longer centered between amide proton signals, bandwidth 1500 Hz
Procedure: An eleventh series of experiments was conducted to examine the effect of saturation duration on the magnitude of MT obtained using the Yb(9)^3+ complex. […] The upper series of spectra (a) were obtained while applying a saturating pulse of different duration and centered between the resonance signals of the exchangeable amide protons, with a saturating bandwidth of 1500 Hz. The saturating bandwidth was produced using conventional water elimination technique (i.e., a wet1d pulse sequence). See Varian User Manual; Varian NMR, Palo Alto, Calif.; User Guide, VNMR Version 6.1 software, 1997), incorporated herein by reference. The pulse sequence to produce saturation was modified to include hard loops to shape the pulse train (90° e-burp1, typically repeated from about 0 to about 500 times) with a bandwidth of 1500 Hz (pwwet=3.0 ms and wetpwr=28 db). The lower series (b) of spectra, shown inverted to facilitate comparison to series (a), were obtained while applying the same saturating pulse, but on the opposite side and equal distance away from the bulk water MR signal. As the illustrated in FIG. 26, for a saturating pulse of about 2 s or longer, about a 38% decrease in the bulk water signal was obtained for series (a).

With `O=C([O-])CNC(=O)CN1CCN(CC(=O)NCC(=O)[O-])CCN(CC(=O)NCC(=O)[O-])CCN(CC(=O)NCC(=O)[O-])CC1.[Eu+3]` [Eu(2)^−, LnDOTA-4AmC^−] the “chemical shift of Eu^3+-bound water” value [1] was “about 57 ppm”, the “chemical shift of four equivalent amide protons on the pendent arms” value [1] was “about −6 ppm” and the “pH of slowest exchange (largest τM^298), bound water protons” value [2] was 7. For the same compound, the “pH of slowest exchange, amide protons” value [2] was 5.5, the “exchange limiting regimes (Δω•τM), bound water and amide protons” value ([2]; magnetic field strength of 4.7) was greater than 1 and the “optimal Δω•τM for largest MT” value [3] was “about 15”.
With `NC(=O)CN1CCN(CC(N)=O)CCN(CC(N)=O)CCN(CC(N)=O)CC1.[Yb+3]` [Yb(9)^3+] the “chemical shift of amide protons, first set (Ha)” value [4] was −14.5 ppm, the “chemical shift of amide protons, second set (Hb)” value [4] was −17.7 ppm and the “Hb exchanges faster than Ha” value [5] was “about 1.3 times”. For the same compound, the “exchange limiting regimes Δω•τM of both amide protons” value ([5]; 7.05 T, broad range of pH values) was greater than 1, the “τM^298, Ha” value ([5]; pH 6.46) was 5.00 ms and the “τM^298, Hb” value ([5]; pH 6.46) was 4.00 ms. The “Δω•τM^298, Ha” value ([5]; pH 6.46, 7.05 T) was 139.3, the “Δω•τM^298, Hb” value ([5]; pH 6.46, 7.05 T) was 133.7 and the “τM^298, Ha” value ([5]; pH 6.76) was 2.30 ms. The “τM^298, Hb” value ([5]; pH 6.76) was 1.78 ms, the “Δω•τM^298, Ha” value ([5]; pH 6.76, 7.05 T) was 64.1 and the “Δω•τM^298, Hb” value ([5]; pH 6.76, 7.05 T) was 59.5. For the same compound, the “τM^298, Ha” value ([5]; pH 7.06) was 1.21 ms, the “τM^298, Hb” value ([5]; pH 7.06) was 0.82 ms and the “Δω•τM^298, Ha” value ([5]; pH 7.06, 7.05 T) was 33.6. For the same compound, the “Δω•τM^298, Hb” value ([5]; pH 7.06, 7.05 T) was 27.2, the “τM^298, Ha” value ([5]; pH 7.21) was 0.92 ms and the “τM^298, Hb” value ([5]; pH 7.21) was 0.72 ms. For the same compound, the “Δω•τM^298, Ha” value ([5]; pH 7.21, 7.05 T) was 25.5, the “Δω•τM^298, Hb” value ([5]; pH 7.21, 7.05 T) was 24.2 and the “τM^298, Ha” value ([5]; pH 7.43) was 0.64 ms. For the same compound, the “τM^298, Hb” value ([5]; pH 7.43) was 0.52 ms, the “Δω•τM^298, Ha” value ([5]; pH 7.43, 7.05 T) was 17.9 and the “Δω•τM^298, Hb” value ([5]; pH 7.43, 7.05 T) was 17.4. For the same compound, the “τM^298, Ha” value ([5]; pH 7.84) was 0.57 ms, the “τM^298, Hb” value ([5]; pH 7.84) was 0.44 ms and the “Δω•τM^298, Ha” value ([5]; pH 7.84, 7.05 T) was 15.9. For the same compound, the “Δω•τM^298, Hb” value ([5]; pH 7.84, 7.05 T) was 14.7 and the “decrease in the bulk water signal, series (a)” value [6] was roughly 38%.
